The test system of this test is IL-1β production in PMA-differentiated THP-1 cells. Put plainly: IL-1β production in PMA-differentiated THP-1 cells stimulated with gramicidin (hTHP-1 assay containing 2% fetal bovine serum; Procedures 1-3). The format is cell-based, human. The following applies: Homo sapiens, THP-1, hTHP-1 assay containing 2% fetal bovine serum; class symbols; read-out: hTHP-1 IC50 (Average IC50 of compounds in hTHP-1 assay). Summed up: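 THP-1 cells differentiated with PMA (20 ng/ml, 16-18 h), replated in 2% FBS RPMI (50,000 cells/well), preincubated 1 h with compound (top final 100 μM, 3-fold steps, 0.37% DMSO), then stimulated 2 h with gramicidin (5 μM). Supernatant IL-1β measured by HTRF.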

Our source for the IC50 values is patent US11370763B2, “Compounds and compositions for treating conditions associated with NLRP activity” (Novartis AG, priority 2017, dated 2022).

As a reminder, the IC50 is the point on the concentration scale where inhibition reaches its midpoint. Take `CC(C)c1ccc(F)c(C(C)C)c1CC(=O)N=S(N)(=O)c1nc(C(C)(C)O)cs1` (stereo not drawn) [Example 119, N-(amino(4-(2-hydroxypropan-2-yl)thiazol-2-yl)(oxo)-λ^6-sulfaneylidene)-2-(3-fluoro-2,6-diisopropylphenyl)acetamide]: the IC50 lay in the range of 0.2 to 1 µM. The result for `CC(C)c1ccc(C#N)c(C(C)C)c1CC(=O)N=S(N)(=O)c1nc(C(C)(C)O)cs1` (stereo not drawn) [Example 120, N-(amino(4-(2-hydroxypropan-2-yl)thiazol-2-yl)(oxo)-λ^6-sulfaneylidene)-2-(3-cyano-2,6-diisopropylphenyl)acetamide] reads 0.2 to 1 µM; that for `Cc1ccc(-c2cc(C(C)C)c(CC(=O)N=S(N)(=O)c3ncc(C(C)(C)O)s3)c(C(C)C)c2)cc1C` (stereo not drawn) [Example 121, N-(amino(5-(2-hydroxypropan-2-yl)thiazol-2-yl)(oxo)-λ^6-sulfaneylidene)-2-(3,5-diisopropyl-3′,4′-dimethyl-[1,1′-biphenyl]-4-yl)acetamide], 0.2 to 1 µM; that for `CC(C)c1cc(-c2ccc(Cl)c(Cl)c2)cc(C(C)C)c1CC(=O)N=S(N)(=O)c1ncc(C(C)(C)O)s1` (stereo not drawn) [Example 122, N-(amino(5-(2-hydroxypropan-2-yl)thiazol-2-yl)(oxo)-λ^6-sulfaneylidene)-2-(3′,4′-dichloro-3,5-diisopropyl-[1,1′-biphenyl]-4-yl)acetamide], 0.2 to 1 µM. In the case of `CC(C)c1cc(C#N)c(F)c(C(C)C)c1CC(=O)N=S(N)(=O)c1cnc(C(C)(C)O)s1` (stereo not drawn) [Example 123, N-(amino(2-(2-hydroxypropan-2-yl)thiazol-5-yl)(oxo)-λ^6-sulfaneylidene)-2-(4-cyano-3-fluoro-2,6-diisopropylphenyl)acetamide], the IC50 lay in the range of 0.2 to 1 µM. Regarding `CC(C)c1cc(F)c(F)c(C(C)C)c1CC(=O)N=S(N)(=O)c1nc(C(C)(C)O)cs1` (stereo not drawn) [Example 124, N-(amino(4-(2-hydroxypropan-2-yl)thiazol-2-yl)(oxo)-λ^6-sulfaneylidene)-2-(3,4-difluoro-2,6-diisopropylphenyl)acetamide], the IC50 was 0.2 to 1 µM. `CC(C)c1ccc(F)c(C(C)C)c1CC(=O)N=S(N)(=O)c1ccc(C(C)(C)O)s1` (stereo not drawn) [Example 125, N-(amino(5-(2-hydroxypropan-2-yl)thiophen-2-yl)(oxo)-λ^6-sulfaneylidene)-2-(3-fluoro-2,6-diisopropylphenyl)acetamide]: the IC50 was in the range of 0.2 to 1 µM. The result for `COc1ccc2cc(-c3cc(C(C)C)c(CC(=O)N=S(N)(=O)c4ncc(C(C)(C)O)s4)c(C(C)C)c3)ccc2c1` (stereo not drawn) [Example 126, N-(amino(5-(2-hydroxypropan-2-yl)thiazol-2-yl)(oxo)-λ^6-sulfaneylidene)-2-(2,6-diisopropyl-4-(6-methoxynaphthalen-2-yl)phenyl)acetamide] reads 0.2 to 1 µM; that for `CC(C)c1cc(F)cc(C(C)C)c1CC(=O)N=S(N)(=O)c1ncc(C(C)(C)C(=O)O)s1` (stereo not drawn) [Example 127, 2-(2-(N′-(2-(4-fluoro-2,6-diisopropylphenyl)acetyl)sulfamidimidoyl)thiazol-5-yl)-2-methylpropanoic acid], 5 to 30 µM. As for `CC(C)c1c(F)c(C#N)cc(C2CC2)c1CC(=O)N=S(N)(=O)c1ccc(CN(C)C)cc1F` (stereo not drawn) [Example 128, N-(amino(4-((dimethylamino)methyl)-2-fluorophenyl)(oxo)-λ^6-sulfaneylidene)-2-(4-cyano-6-cyclopropyl-3-fluoro-2-isopropylphenyl)acetamide], the figure is 0.2 to 1 µM. For the compound `Cc1sc(S(N)(=O)=NC(=O)Cc2c(C(C)C)ccc(F)c2C(C)C)cc1C(C)(C)O` (stereo not drawn) [Example 129, N-(amino(4-(2-hydroxypropan-2-yl)-5-methylthiophen-2-yl)(oxo)-λ^6-sulfaneylidene)-2-(3-fluoro-2,6-diisopropylphenyl)acetamide], the IC50 fell in the range of 0.04 to 0.2 µM. `CC(C)c1ccc(F)c(C(C)C)c1CC(=O)N=S(N)(=O)c1ncc(C(C)(C)O)s1` (stereo not drawn) [Example 130, N-(amino(5-(2-hydroxypropan-2-yl)thiazol-2-yl)(oxo)-λ^6-sulfaneylidene)-2-(3-fluoro-2,6-diisopropylphenyl)acetamide]: the half-maximal inhibitory concentration (IC50) fell in the range of 1 to 5 µM. The result for `CC(C)c1cc2c(c(C(C)C)c1CC(=O)N=S(N)(=O)c1cnc(C(C)(C)O)s1)COC2` (stereo not drawn) [Example 132, N-(amino(2-(2-hydroxypropan-2-yl)thiazol-5-yl)(oxo)-λ^6-sulfaneylidene)-2-(4,6-diisopropyl-1,3-dihydroisobenzofuran-5-yl)acetamide] reads 1 to 5 µM.

Consider `CC(C)c1cc(C#N)c(F)c(C(C)C)c1CC(=O)N=S(N)(=O)c1nc(C(C)(C)O)cs1` (stereo not drawn) [Example 133, N-(amino(4-(2-hydroxypropan-2-yl)thiazol-2-yl)(oxo)-λ^6-sulfaneylidene)-2-(4-cyano-3-fluoro-2,6-diisopropylphenyl)acetamide], for which the IC50 lay in the range of 0.2 to 1 µM. On to `CC(C)c1cc2c(c(C(C)C)c1CC(=O)N=S(N)(=O)c1ccc(CN(C)C)cc1)COC2` (stereo not drawn) [Example 134], for which the IC50 lay within 1 to 5 µM. The result for `CC(C)c1ccc2c(c1CC(=O)N=S(N)(=O)c1cnc(C(C)(C)O)s1)CCC2` (stereo not drawn) [Example 135, N-(amino(2-(2-hydroxypropan-2-yl)thiazol-5-yl)(oxo)-λ^6-sulfaneylidene)-2-(5-isopropyl-2,3-dihydro-1H-inden-4-yl)acetamide] reads 1 to 5 µM; that for `CC(C)c1cc(-c2ccc3ccccc3c2)cc(C(C)C)c1CC(=O)N=S(N)(=O)c1ccc(CN(C)C)cc1` (stereo not drawn) [Example 136, N-(amino(4-((dimethylamino)methyl)phenyl)(oxo)-λ^6-sulfaneylidene)-2-(2,6-diisopropyl-4-(naphthalen-2-yl)phenyl)acetamide], 0.2 to 1 µM. For the compound `CC(C)c1cc(-c2ccc3c(c2)CCOC3)cc(C(C)C)c1CC(=O)N=S(N)(=O)c1sc(C(C)(C)O)nc1CO` (stereo not drawn) [Example 137, N-(amino(4-(hydroxymethyl)-2-(2-hydroxypropan-2-yl)thiazol-5-yl)(oxo)-λ^6-sulfaneylidene)-2-(4-(isochroman-6-yl)-2,6-diisopropylphenyl)acetamide], the IC50 is 0.2 to 1 µM. Turning to `CC(C)c1cc(-c2ccc3c(c2)CCOC3)cc(C(C)C)c1CC(=O)N=S(=O)(NC(=O)OC(C)(C)C)c1cnc(C(C)(C)O)s1` (stereo not drawn) [Example 138, tert-butyl (2-(2-hydroxypropan-2-yl)-N-(2-(4-(isochroman-6-yl)-2,6-diisopropylphenyl)acetyl)thiazole-5-sulfonimidoyl)carbamate], the IC50 is 1 to 5 µM. Regarding `CC(C)c1cc(-c2ccc3c(c2)CCOC3)cc(C(C)C)c1CC(=O)N=S(N)(=O)c1cnc(C(C)(C)O)s1` (stereo not drawn) [Example 139, N-(amino(2-(2-hydroxypropan-2-yl)thiazol-5-yl)(oxo)-λ^6-sulfaneylidene)-2-(4-(isochroman-6-yl)-2,6-diisopropylphenyl)acetamide], the IC50 is 0.2 to 1 µM.

Take `CC(C)c1cc(COC2CCCC2)cc(C(C)C)c1CC(=O)N=S(=O)(NC(=O)OC(C)(C)C)c1cnc(C(C)(C)O)s1` (stereo not drawn) [Example 140, tert-butyl (N-(2-(4-((cyclopentyloxy)methyl)-2,6-diisopropylphenyl)acetyl)-2-(2-hydroxypropan-2-yl)thiazole-5-sulfonimidoyl)carbamate]: the half-maximal inhibitory concentration (IC50) was 0.2 to 1 µM.
